Laboratory results as given in US10420844B2, “Peptide pharmaceuticals” (Mederis Diabetes LLC, priority 2011, dated 2019).
Entries after “also recorded” stand apart in the source; their conditions may differ. Non-standard residues stand in square brackets, D forms with d. Residues, ends and D or L forms follow the SMILES beside them. *: point of attachment. GlcA(β-D,1-O-dodecyl) = CCCCCCCCCCCCO[C@@H]1O[C@H](C(=O)*)[C@@H](O)[C@H](O)[C@H]1O; GlcA(β1-O-octyl) = CCCCCCCCO[C@@H]1O[C@H](C(=O)*)[C@@H](O)[C@H](O)[C@H]1O; βGlcA(1-OMe) = CO[C@@H]1O[C@H](C(=O)*)[C@@H](O)[C@H](O)[C@H]1O; Phe(2,4,6-Me3) = Cc1cc(C)c(C[C@H](N)C(=O)O)c(C)c1; Dmt = Cc1cc(O)cc(C)c1C[C@H](N)C(=O)O; hArg = N=C(N)NCCCC[C@H](N)C(=O)O; Tic = O=C(O)[C@@H]1Cc2ccccc2CN1; Nle = CCCC[C@H](N)C(=O)O; Ac5c = NC1(C(=O)O)CCCC1; Aib = CC(C)(N)C(=O)O; NHBn = c1ccc(CN*)cc1

Experiments:
[1] = target: T1, mu opioid receptor (Homo sapiens, UniProt P35372); assay: mu opioid receptor cellular assay (MOP, agonist and antagonist mode), cAMP readout, Cerep; assay type: cell-based
T1 construct: Cerep SA (contract research organization)
Description: Compounds were weighed precisely in an amount of approximately 2 mg and assayed in standard cellular assays by the contract research organization Cerep, Inc. (Pullman, Wash.) as executed at their subsidiary, Cerep SA (Le Bois l'Eveque, France). The readout is the amount of cAMP generated in the cells treated with the test compounds, in either agonist or antagonist mode. The assays used were the mu opioid receptor cellular assay (MOP in agonist and antagonist mode), the delta2 opioid receptor cellular assay (DOP in agonist and antagonist mode) and the kappa opioid receptor cellular assay (KOP in agonist and antagonist mode). The assays used are described in Wang, J. B., et al. (1994) FEBS Lett 338: 217-222, Law, P. Y. and Loh, H. H. (1993) Mol Pharmacol 43: 684-693, and Avidor-Reiss, T., et al. (1995) FEBS Lett 361: 70-74. The stimulant for the cells in the DOR antagonist assay was 3×10E-8M DPDPE, a well-accepted DOR literature standard.

[2] = in water; cited from earlier work
[3] = blood PO4 and Ca levels in rats after a single sc injection; assay type: in vivo, rat; conditions: for blood calcium levels versus control (saline/vehicle): 80 (PTH, EU-232) or 320 (EU-232), all time points; for blood PO4 levels, 80 mcg groups: PO4 did not further diminish after 1 hour
Source text: Following the method of Frolik, C.

[4] = target: T2, PTH1 (PTHR1), SaOS2 cells (Homo sapiens, UniProt Q03431); assay: PTH1 cellular assay, cAMP generated in SaOS2 cells, Cerep; assay type: cell-based
T2 construct: host or cells: SaOS2 cells (as named in the result head)
T2 sequence (Q03431 27-593): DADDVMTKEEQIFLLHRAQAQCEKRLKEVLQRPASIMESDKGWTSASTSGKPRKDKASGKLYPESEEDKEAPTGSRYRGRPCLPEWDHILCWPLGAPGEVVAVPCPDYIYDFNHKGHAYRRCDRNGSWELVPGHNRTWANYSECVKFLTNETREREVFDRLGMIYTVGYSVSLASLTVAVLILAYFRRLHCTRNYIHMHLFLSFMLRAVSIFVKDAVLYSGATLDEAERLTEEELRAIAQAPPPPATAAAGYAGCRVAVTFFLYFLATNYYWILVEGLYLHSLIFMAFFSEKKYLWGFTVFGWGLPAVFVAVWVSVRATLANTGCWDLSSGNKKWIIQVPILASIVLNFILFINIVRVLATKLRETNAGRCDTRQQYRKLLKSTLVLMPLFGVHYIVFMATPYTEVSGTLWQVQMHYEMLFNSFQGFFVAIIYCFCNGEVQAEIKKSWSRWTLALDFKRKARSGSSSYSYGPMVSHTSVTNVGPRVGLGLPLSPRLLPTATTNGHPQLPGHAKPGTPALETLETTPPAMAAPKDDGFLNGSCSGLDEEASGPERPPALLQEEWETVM
Description: Compounds were weighed precisely in an amount of approximately 1 mg and assayed in standard cellular assays (cerep SA). The readout is the amount of cAMP generated in the cells treated with the test compounds, in either agonist or antagonist mode.
Compounds were dissolved in water and diluted in assay buffer containing 1% bovine serum albumin.

[5] = MOP agonist mode and DOP antagonist mode

T1 sequence (P35372 whole entry): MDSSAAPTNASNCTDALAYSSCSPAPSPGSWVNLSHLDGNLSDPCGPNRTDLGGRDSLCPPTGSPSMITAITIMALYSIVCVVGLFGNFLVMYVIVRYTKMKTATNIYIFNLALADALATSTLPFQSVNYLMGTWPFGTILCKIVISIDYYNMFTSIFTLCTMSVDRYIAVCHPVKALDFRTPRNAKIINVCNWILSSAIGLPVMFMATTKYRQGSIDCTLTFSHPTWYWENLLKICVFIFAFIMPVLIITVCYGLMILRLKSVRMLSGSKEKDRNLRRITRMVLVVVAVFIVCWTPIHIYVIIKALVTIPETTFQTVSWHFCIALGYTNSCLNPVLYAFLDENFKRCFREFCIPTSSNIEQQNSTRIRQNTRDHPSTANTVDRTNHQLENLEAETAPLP

With `CO[C@@H]1O[C@H](C(=O)NCCCC[C@H](NC(=O)[C@H](Cc2ccccc2)NC(=O)[C@@H]2Cc3ccccc3CN2C(=O)[C@@H](N)Cc2c(C)cc(O)cc2C)C(=O)NCc2ccccc2)[C@@H](O)[C@H](O)[C@H]1O` [EU-A620, Dmt-Tic-Phe-Lys(C1-glucuronyl)-NHCH2Ph] (H-[Dmt][Tic]FK(βGlcA(1-OMe))-NHBn) the Characterization [1, 5] was “Pure MOP Ag; pure DOP antag”.

In the case of `CCCCCCCCCCCCCCO[C@@H]1O[C@H](CO)[C@@H](O[C@@H]2O[C@@H](CO)[C@H](O)[C@@H](O)[C@@H]2O)[C@H](O)[C@H]1O` (stereo in doubt) [Tetradecyl maltoside], the CMC [2] is listed as 0.01 mM.

For Sucrose dodecanoate, the CMC [2] is given as 0.3 mM.

For `CCCCCCCCO[C@@H]1O[C@H](CO)[C@@H](O[C@H]2O[C@H](CO)[C@@H](O)[C@H](O)[C@H]2O)[C@H](O)[C@H]1O` [Octyl maltoside], the CMC [2] is given as 19.5 mM.

For `CCCCCCCCCCCCCO[C@@H]1O[C@H](CO)[C@@H](OC2OC(CO)C(O)C(O)C2O)[C@H](O)[C@H]1O` (stereo in doubt) [Tridecyl maltoside], the CMC [2] is given as 0.03 mM.

For `CC[C@H](C)[C@H](NC(=O)[C@H](CCC(=O)O)NC(=O)[C@H](CO)NC(=O)[C@@H](NC(=O)[C@@H](N)CO)C(C)C)C(=O)N[C@@H](CCC(N)=O)C(=O)N[C@@H](CC(C)C)C(=O)N[C@@H](CCSC)C(=O)N[C@@H](Cc1cnc[nH]1)C(=O)N[C@@H](CC(N)=O)C(=O)N[C@@H](CC(C)C)C(=O)NCC(=O)N[C@@H](CCCCN)C(=O)N[C@@H](Cc1cnc[nH]1)C(=O)N[C@@H](CC(C)C)C(=O)N[C@@H](CC(N)=O)C(=O)N[C@@H](CO)C(=O)N[C@@H](CCSC)C(=O)N[C@@H](CCC(=O)O)C(=O)N[C@@H](CCCN=C(N)N)C(=O)N[C@H](C(=O)N[C@@H](CCC(=O)O)C(=O)N[C@@H](Cc1c[nH]c2ccccc12)C(=O)N[C@@H](CC(C)C)C(=O)N[C@@H](CCCN=C(N)N)C(=O)N[C@@H](CCCCN)C(=O)N[C@@H](CCCCN)C(=O)N[C@@H](CC(C)C)C(=O)N[C@@H](CCC(N)=O)C(=O)N[C@@H](CC(=O)O)C(=O)N[C@H](C(=O)N[C@@H](Cc1cnc[nH]1)C(=O)N[C@@H](CC(N)=O)C(=O)N[C@@H](Cc1ccccc1)C(=O)O)C(C)C)C(C)C` [PTH, reference compound], the “blood calcium levels versus control (saline/vehicle)” value ([3]; rat, sc) was “No groups were statistically significantly different from control” and the “blood PO4 levels, 80 mcg groups” value ([3]; rat, single sc injection) was “transient but not statistically significant decrease”.

In the case of `CCCCCCCCO[C@@H]1O[C@H](C(=O)NCCCC[C@H](NC(=O)[C@H](Cc2c(C)cc(C)cc2C)NC(=O)[C@@H]2CCCN2C(=O)[C@@H](N)Cc2c(C)cc(O)cc2C)C(N)=O)[C@@H](O)[C@H](O)[C@H]1O` [EU-A102, 2′,6′-dimethyl-L-tyrosyl-prolyl-2′,4′,6′-trimethyl-L-phenylalanyl-Nε-(1′-octyl β-D-glucuronyl)-L-lysine amide] (H-[Dmt]P[Phe(2,4,6-Me3)]K(GlcA(β1-O-octyl))-NH2), the Characterization ([1]; MOP agonist/antagonist modes) was “partial agonist”.

With `CCCCCCCCCCCCO[C@@H]1O[C@H](C(=O)NCCCC[C@H](NC(=O)C(C)(C)NC(=O)[C@H](CCC(N)=O)NC(=O)[C@@H](NC(=O)[C@H](Cc2c[nH]c3ccccc23)NC(=O)[C@H](CCCNC(=N)N)NC(=O)[C@H](C)NC(=O)[C@H](CCCCNC(=N)N)NC(=O)[C@H](CCC(N)=O)NC(=O)[C@H](Cc2c[nH]cn2)NC(=O)[C@H](CCCC)NC(=O)[C@H](CC(C)C)NC(=O)[C@H](CCC(N)=O)NC(=O)[C@@H](NC(=O)[C@H](CCC(=O)O)NC(=O)C(C)(C)NC(=O)[C@@H](NC(=O)C2(N)CCCC2)C(C)C)[C@@H](C)CC)[C@@H](C)CC)C(=O)NC(C)(C)C(N)=O)[C@@H](O)[C@H](O)[C@H]1O` [EU-232] (H-[Ac5c]V[Aib]EIQL[Nle]HQ[hArg]ARWIQ[Aib]K(GlcA(β-D,1-O-dodecyl))[Aib]-NH2) the Characterization [4] was “agonist”, the “character of the cellular cAMP response” value [4] was “super-agonistic response; also recorded: super-agonistic activity” and the “time of maximal statistically significant effect on blood phosphate” value ([3]; rat serum, sc dosing, last time point of the assay (FIG. 6)) was 5 h. For the same compound, the “blood calcium levels versus control (saline/vehicle)” value ([3]; rat, sc) was “No groups were statistically significantly different from control”, the “blood calcium at maximally effective dose and time point” value ([3]; rat, sc, G4 320, at 5 hrs) was “no elevation” and the “blood PO4 levels, 80 mcg groups” value ([3]; rat, single sc injection) was “transient but not statistically significant decrease”. The “maximal decrease of blood PO4 from time 0 hr. level” value ([3]; rat, single sc injection, seen at the 5 hr. time point, statistically significant) was 25-35%.

In the case of `CO[C@@H]1O[C@H](C(=O)NCCCC[C@@H](NC(=O)[C@@H](N)Cc2c(C)cc(O)cc2C)C(=O)N[C@@H](Cc2c(C)cc(C)cc2C)C(=O)N[C@@H](Cc2ccccc2)C(N)=O)[C@@H](O)[C@H](O)[C@H]1O` [EU-A107, Dmt-D-Lys(C1-glucuronyl)-Tmp-Phe-NH2] (H-[Dmt][dK](βGlcA(1-OMe))[Phe(2,4,6-Me3)]F-NH2; N-terminus assumed), the Characterization ([1]; MOP agonist/antagonist modes) was “Agonist”.

In the case of `CO[C@@H]1O[C@H](C(=O)NCCCC[C@@H](NC(=O)[C@H](Cc2ccccc2)NC(=O)[C@@H]2Cc3ccccc3CN2C(=O)[C@@H](N)Cc2c(C)cc(O)cc2C)C(=O)NCc2ccccc2)[C@@H](O)[C@H](O)[C@H]1O` [EU-A639, Dmt-Tic-Phe-D-Lys(C1-glucuronyl)-NHCH2Ph] (H-[Dmt][Tic]F[dK](βGlcA(1-OMe))-NHBn; N-terminus assumed), the Characterization [1, 5] was “Pure MOP Ag; pure DOP antag”.

In the case of `CCCCCCCCCCO[C@@H]1O[C@H](CO)[C@@H](O[C@H]2O[C@H](CO)[C@@H](O)[C@H](O)[C@H]2O)[C@H](O)[C@H]1O` [Decyl maltoside], the CMC [2] is listed as 1.8 mM.

With `CO[C@@H]1O[C@H](C(=O)NCCCC[C@H](NC(=O)[C@H](Cc2ccccc2)NC(=O)[C@H](Cc2ccccc2)NC(=O)[C@@H]2Cc3ccccc3CN2C(=O)[C@@H](N)Cc2c(C)cc(O)cc2C)C(N)=O)[C@@H](O)[C@H](O)[C@H]1O` [EU-A189, 2′,6′-dimethyl-L-tyrosyl-L-1,2,3,4-tetrahydroisoquinoline-3-carbonyl-L-phenylalanyl-L-phenylalanys-Nε-(1′-methyl β-D-glucuronyl)-L-lysyl-amide] the Characterization [1, 5] was “Pure MOP Ag; pure DOP antag”.

For `CO[C@@H]1O[C@H](C(=O)NCCCC[C@H](NC(=O)[C@H](Cc2ccccc2)NC(=O)[C@@H]2Cc3ccccc3CN2C(=O)[C@@H](N)Cc2c(C)cc(O)cc2C)C(=O)NC(C)(C)C(N)=O)[C@@H](O)[C@H](O)[C@H]1O` [EU-A600, Dmt-Tic-Phe-Lys(C1-glucuronyl)-Aib-NH2] (H-[Dmt][Tic]FK(βGlcA(1-OMe))[Aib]-NH2), the Characterization [1, 5] was “Pure MOP Ag; pure DOP antag”.

For `CCCCCCCCCCCCO[C@@H]1O[C@H](C(=O)NCCCC[C@H](NC(=O)[C@H](Cc2c(C)cc(C)cc2C)NC(=O)[C@@H]2CCCN2C(=O)[C@@H](N)Cc2c(C)cc(O)cc2C)C(N)=O)[C@@H](O)[C@H](O)[C@H]1O` [EU-A103, Dmt-Pro-Tmp-Lys(C12-glucuronyl)-NH2] (H-[Dmt]P[Phe(2,4,6-Me3)]K(GlcA(β-D,1-O-dodecyl))-NH2; N-terminus assumed), the Characterization ([1]; MOP agonist/antagonist modes) was “pure antagonist”.

In the case of `CCCCCCCCCCCCO[C@@H]1O[C@H](CO)[C@@H](O[C@H]2O[C@H](CO)[C@@H](O)[C@H](O)[C@H]2O)[C@H](O)[C@H]1O` [Dodecyl-β-D-maltoside], the CMC [2] is listed as 0.17 mM.

With “Dmt-Tic-Phe-Phe-Lys(C12-glucuronyl)-NH2 [EU-A190]” the Characterization [1, 5] was “Pure MOP Ag; pure DOP antag”.

With “Dmt-Tic-Phe-D-Lys(C1-glucuronyl)-Aib-NH2 [EU-A615]” the Characterization [1, 5] was “Pure MOP Ag; pure DOP antag”.

For `CO[C@@H]1O[C@H](C(=O)NCCCC[C@H](NC(=O)[C@H](Cc2c(C)cc(C)cc2C)NC(=O)[C@@H]2CCCN2C(=O)[C@@H](N)Cc2c(C)cc(O)cc2C)C(N)=O)[C@@H](O)[C@H](O)[C@H]1O` [EU-A101, Dmt-Pro-Tmp-Lys(C1-glucuronyl)-NH2] (H-[Dmt]P[Phe(2,4,6-Me3)]K(βGlcA(1-OMe))-NH2; N-terminus assumed), the Characterization ([1]; MOP agonist/antagonist modes) was “pure agonist”.

With `CCCCCCCCO[C@@H]1O[C@H](C(=O)NCCCC[C@H](NC(=O)[C@H](Cc2ccccc2)NC(=O)[C@@H]2Cc3ccccc3CN2C(=O)[C@@H](N)Cc2c(C)cc(O)cc2C)C(N)=O)[C@@H](O)[C@H](O)[C@H]1O` [EU-A180, Dmt-Tic-Phe-Lys(C8-glucuronyl)-NH2] (H-[Dmt][Tic]FK(GlcA(β1-O-octyl))-NH2) the Characterization [1, 5] was “Pure MOP Ag; pure DOP antag”.
